3 compounds from patent US8492440B2, “Difluorophenyldiacylhydrazide derivatives” (Merck Patent GmbH, priority 2008, dated 2013) can be followed below.

Data set [1] has as its target T1, SGK1 (Homo sapiens, UniProt O00141).
T1 sequence (O00141 1-431): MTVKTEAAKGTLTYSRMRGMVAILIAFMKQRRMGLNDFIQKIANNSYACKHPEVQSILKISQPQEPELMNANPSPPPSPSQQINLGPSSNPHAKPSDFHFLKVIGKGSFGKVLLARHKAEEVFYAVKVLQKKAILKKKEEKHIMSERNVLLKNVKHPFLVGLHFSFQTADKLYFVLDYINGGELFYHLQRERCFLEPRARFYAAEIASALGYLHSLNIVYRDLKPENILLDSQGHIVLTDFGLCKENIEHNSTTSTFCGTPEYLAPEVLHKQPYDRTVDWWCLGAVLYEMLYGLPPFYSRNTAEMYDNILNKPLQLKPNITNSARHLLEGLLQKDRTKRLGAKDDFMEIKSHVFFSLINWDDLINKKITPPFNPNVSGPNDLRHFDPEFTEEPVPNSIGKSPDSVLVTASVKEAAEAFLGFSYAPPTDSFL
The data set is described as follows: Cell assay: P-NDRG1 level in HeLa cells (western blot), intracellular SGK1 inhibition. In kind it is cell-based. Also on record: endogenous in cells; host or cells: HeLa. The conditions noted are these: decrease of NDRG1 phosphorylation, 24 hrs incubation. As to the method: HeLa cells are plated out with a density of 10−20×10^3 cells/cm^2 in 6-well MTPs (Costar Corning, #3506) in DMEM medium, supplemented with 10% foetal calf serum (FCS), 2 mM glutamine and 1 mM sodium pyruvate. After 24 hrs. at 37° C. and with 5% CO2 in a cell incubator, each well is furthermore supplemented with 25 μl of a 100× DMSO solution of the compound; this solution is diluted 100-fold in the supernatant of the cell culture, which results in the expected SGK1 inhibitor concentration at a 1% DMSO concentration. The cells are incubated under the same conditions for a further 24 hrs.
The supernatants are subsequently removed (by suction), and the cells are washed once with 1 ml/well of ice-cold phosphate-buffered saline solution (PBS). 250 μl of the ice-cold lysis buffer (50 mM tris/HCl, 1 mM EDTA, 1 mM EGTA, 0.5 mM activated Na3VO4, 10 mM glycerophosphate, 50 mM NaF, 5 mM Na pyrophosphate, 1% Triton X100, 1 mM DTT, 0.1 mM PMSF and 1 μM microcystine and in each case 1 μg/ml of aprotinin, pepstatin or leupeptin) are added to each well. The cells are scraped down from the base of the well, and the cell suspension is sucked up several times with an Eppendorf pipette; the cells are thereby lysed and homogenised. […] The binding of the primary antibody was determined using antisheep IG antibody conjugated to […] peroxidase (1:5000 dilution, Calbiochem), followed by amplified chemiluminescence (SuperSignal West Dura Extended Duration, Pierce). […] The NDRG1 levels are determined after stripping of the nitrocellulose membranes using Restore™ western blot stripping buffer and the Pierce method.
On use of the P-NDRG1 antiserum, a decrease in the phosphorylation level of the NDRG1 protein can easily be detected. The decrease in the intensity of the bands in the western blot on use of the P-NDRG1 antiserum is determined, plotted against the cell culture medium concentration of the SGK1 inhibitor in a semi-logarithmic diagram and used for assessment of the intracellular inhibitor efficacy ([…]) of the SGK1 inhibitor. […]
A general note: Immunoblotting shows a protein as a band on a membrane.

The target of data set [2] is T1, SGK1. Kind of data set: SGK1 protein kinase inhibition (enzyme), filter binding method. In kind it is biochemical. The source says: Other assays are known from the literature and could readily be performed by the person skilled in the art (see, for example, Dhanabal et al., Cancer Res. 59:189-197; Xin et al., J. Biol. Chem. 274:9116-9121; Sheu et al., Anticancer Res. 18:4435-4441; Ausprunk et al., Dev. Biol. 38:237-248; Gimbrone et al., J. Natl. Cancer Inst. 52:413-427; Nicosia et al., In Vitro 18:538-549). The inhibition of SGK1 protein kinase can be determined in the filter binding method.

As a reminder, the IC50 is the midpoint of a concentration-inhibition curve. A low value points to higher potency. A word on the melting point: it is the temperature, or range, at which the solid turns liquid. `CCc1c(C(=O)NNC(=O)Cc2cc(F)c(F)c(OC)c2)ccc(O)c1C` [Compound 1, N′-[2-(3,4-difluoro-5-methoxyphenyl)acetyl]-2-ethyl-4-hydroxy-3-methyl-benzohydrazide] returned a melting point of 217 °C. In addition, on SGK1 [1], the 50% inhibitory concentration (IC50) is less than 500 nM. The compound further yielded an IC50 on SGK1 [2] of less than 10 nM.
Taken in the same sequence, the figures for `CCc1c(C(=O)NNC(=O)Cc2cc(F)c(F)cc2OC)ccc(O)c1C` [Compound 2, N′-[2-(3,4-Difluoro-6-methoxyphenyl)acetyl]-2-ethyl-4-hydroxy-3-methyl-benzohydrazide] were 220.7 °C, more than 500 nM and more than 10 nM.
Regarding `CCc1c(C(=O)NNC(=O)Cc2ccc(F)c(F)c2)ccc(O)c1C` [Compound 3, N′-[2-(3,4-Difluorophenyl)acetyl]-2-ethyl-4-hydroxy-3-methylbenzohydrazide], the IC50 against SGK1 [1] was more than 500 nM; at SGK1 [2] it was more than 10 nM.
